In patent US8450245B2, “Heterocyclic alkanol derivatives” (Bayer Intellectual Property GmbH, priority 2010, dated 2013):

Assays:
[1] = tested on: Sphaerotheca fisliginea; test: Sphaerotheca test (cucumber)/protective; assay type: in vivo; conditions: young cucumber plants sprayed at 500 ppm, inoculated one day after treatment, evaluation 7 days after inoculation; 100% = no infection
Method: Solvent: 49 parts by weight of N,N-dimethylformamide
Emulsifier: 1 part by weight of alkylaryl polyglycol ether
To produce an appropriate active ingredient formulation, 1 part by weight of active ingredient is mixed with the specified amounts of solvent and emulsifier, and the concentrate is diluted with water to the desired concentration. To test for protective activity, young cucumber plants are sprayed with the formulation of active ingredient at the stated application rate. One day after the treatment, the plants are inoculated with a spore suspension of Sphaerotheca fisliginea. The plants are then placed in a greenhouse at 70% relative air humidity and a temperature of 23° C. Evaluation follows 7 days after the inoculation. 0% means an efficacy which corresponds to that of the control, whereas an efficacy of 100% means that no infection is observed. In this test, the following inventive compounds, at an active ingredient concentration of 500 ppm, show an efficacy of 70% or more.

[2] = logP by HPLC on reversed-phase columns (C 18), EEC Directive 79/831 Annex V.A8; assay type: physicochemical; conditions: reversed-phase HPLC column (C 18); method [a]: LC-MS, acidic range, pH 2.7, 0.1% aqueous formic acid and acetonitrile, linear gradient 10% to 95% acetonitrile
Method: The logP values were measured in accordance with EEC Directive 79/831 Annex V.A8 by HPLC (High Performance Liquid Chromatography) using reversed-phase columns (C 18) by the following methods: [a] The LC-MS determination in the acidic range is effected at pH 2.7 with 0.1% aqueous formic acid and acetonitile (contains 0.1% formic acid) as eluents; linear gradient from 10% acetonitrile to 95% acetonitrile.

[3] = tested on: Alternaria solani; test: Alternaria test (tomato)/protective; assay type: in vivo; conditions: young tomato plants sprayed at 500 ppm, inoculated one day after treatment, evaluation 7 days after inoculation; 100% = no infection
Method: Solvent: 49 parts by weight of N,N-dimethylformamide Emulsifier: 1 part by weight of alkylaryl polyglycol ether To produce an appropriate active ingredient formulation, 1 part by weight of active ingredient is mixed with the specified amounts of solvent and emulsifier, and the concentrate is diluted with water to the desired concentration. To test for protective activity, young tomato plants are sprayed with the active ingredient formulation at the stated application rate. One day after the treatment, the plants are inoculated with a spore suspension of Alternaria solani and are then left at 100% relative humidity and 22° C. for 24 h. The plants are then left at 96% relative air humidity and a temperature of 20° C. Evaluation follows 7 days after the inoculation. 0% means an efficacy which corresponds to that of the control, whereas an efficacy of 100% means that no infection is observed. In this test, the following inventive compounds, at an active ingredient concentration of 500 ppm, show an efficacy of 70% or more.

chromatographic logP [2]: 3.76
Compound: CC(C)(C)C(O)(COc1ccc(I)c(F)c1F)c1cncs1 (stereo not drawn) [Compound 1]
Efficacy (%) [1]: 94%
Efficacy (%) [3]: 100%
